The test system of one data set is SKH-1 hairless mice. The data set is described as follows: Hairless mouse assay: skin histology and skin compartment measurements. The class given is in vivo. As to conditions: H&E stained biopsies, after 3 weeks of treatment. An excerpt:
Experimental Design. 48 female SKH-1 hairless mice (5 weeks old, 20-25 grams, Charles River Laboratories, Wilmington, Mass.) are individually housed in filter-top cages, and acclimated for 5-7 days after delivery. The mice are divided into 8 treatment groups (n=6), including two different control groups (untreated control, vehicle control) and a therapeutic control (tretinoin 0.05% Renova™ cream). Cage cards are marked to indicate treatment groups 1-8. Water and mouse chow are provided ad libitum.
Topical Treatments. Beginning on Treatment Day 1, test products are applied topically each morning (Monday through Friday) after erythema evaluations for 3 weeks. Using a positive displacement pipette, 20 mg of each agent is applied to a 2 cm×2 cm area of the center midline of the back. The material was spread across the treatment area with the pipette tip.
Skin Histology. Skin biopsies are taken of each treatment site and untreated control skin. Biopsies are fixed in 4% neutral buffered formalin, embedded in paraffin, and stained with hematoxylin and eosin. The stained skin sections are examined to determine the effects of the treatment on epidermal, dermal, and stratum corneum histology. Biopsies are also microscopically examined for inflammatory cells.
Skin Compartment Measurements. The H&E stained biopsy slides were imaged using a trinocular Olympus BH-2 microscope fitted with a Microfire 2.1×3 Digital Camera. 100× images were digitized and stored on CD using MS Pictureframe and Microfire Software. All compartment images were measured using a calibrated micrometer. An average of three measurements of each compartment for two slide images per biopsy was obtained and tabulated, and means and standard deviations were calculated.

For data set [1], the system named is erytroid leukemia cell line K-562. Briefly: In vitro cytotoxic activity (metabolisation of Calcein AM). The class given is cell-based, human. As to conditions: Homo sapiens, K562, 72 hours, highest concentration tested 100 μM in routine testing. In outline: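 Cells were pre-incubated 24 hours at 2.500-30.000 cells per well, then exposed to six 3-fold dilutions, usually from 100 μM top, for 72 hours at 37° C, 5% CO2, in triplicate. Calcein AM was added at 1 μg/ml final and fluorescence read after 1 hour; GI50 is the concentration halving Calcein AM conversion.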

Data set [2] relates to mitochondria of ASF-2 cells. The data set is described as follows: JC-1 staining of mitochondria. As to conditions: 3 days pre-treatment of dermal fibroblasts. The data set is classed as cell-based, human. How it is done: (§1) All cell culture experiments were performed on early and mid passage cultures (about 20 to 40% lifespan completed) of normal human skin fibroblast line, designated ASF-2. In order to check the effects of test compounds on senescent cells, late passage cells with more than 90% lifespan completed were used. ASF-2 cell line was established from a mammary skin biopsy obtained from a young, non-smoking and healthy […] at the time of breast reduction operation. Normal culture conditions of medium (DMEM) containing antibiotics, 10% foetal calf serum, and incubation at 37° C. with 95% humidity were used. The effects of the test compounds were determined using the following procedures.
Briefly, stock solution of JC-1 (Sigma, M2128) was made at 1 mg/ml in dimethyl sulfoxide. Fresh staining solution […] was prepared by diluting the stock solution in warm (37° C.) culture medium supplemented with 10% calf serum (final conc. 1 μg/ml). Around 3000 cells/ml were seeded in 4 chambered flasks. After three days of incubation, medium is aspirated and one ml of JC-1 staining medium is added, after incubation for 10 mins a cover slip is quickly added and viewed under fluorescent microscope at excitation wavelengths of 488 and 647 nm. […] On depolarization, the orange red punctate staining is replaced by diffuse green monomer fluorescence.

The subject of data set [3] is Salmonella typhimurium histidien auxotrophs TA98 and TA100. The data set is described as follows: Ames test. The class given is cell-based. To be noted: 2.5-5000 μg/plate, presence and absence of Aroclor-induced rat liver S9. The procedure:
Ames Test. A number of tests related to the safety of these inventive compounds have been carried out using conventionally accepted protocols and procedures. Tests were carried out using DMSO as solvent and dose levels of 8-amino-6-furfurylaminopurine at 2.5, 5.0, 15, 50, 500, 1500, and 5000 μg/plate based upon standard protocol and procedures (Ames et al., Mutation Research, 31, 347-364 (1975); Maron et al., Mutation Research, 113, 173-215 (1983)).
In general terms: In the Ames test, an excess of revertant colonies over the control signals mutagenicity.

The subject of the next data set is proteasome. Briefly: Proteasomal activity (chymotrypsin-like) in cell extracts. The class given is cell-based, human. As to conditions: 40 μM-200 μM. The procedure:
as §1
Proteasomal activity. Chymotrypsin-like activity in cell extracts prepared from treated and untreated cells was determined by in vitro degradation of oligopeptides by the proteasome.

Data set [4] has as its system human skin fibroblast line ASF-2. Briefly: Cell survival and toxicity (MTT assay). The data set is classed as cell-based. The procedure:
as §1
Cell survival, toxicity, and JC-1 staining. Cell survival after exposure to various doses of the test compounds was measured with the 3-(4,5 dimethylthiazol-2-yl)-2,5-diphenyltetrazolium bromide (MTT) assay. About 5,000 cells were seeded per well in a 96-well plate 24 h before the experiment. Cells were then treated with various doses of the compound to be tested. The wells were washed in Hank's and new medium was added. After three days, MTT (Sigma, M2128) was added at 0.5 mg/ml in medium. After 4 h, MTT was collected and then dissolved in isopropanol and HCl over a 12-16 h period. The absorbance at 595 nm was measured.
A general note: Tetrazolium assays rely on reduction of a dye to a coloured formazan, in cell work by metabolically active cells.

Molecules are shown by their SMILES.

The term GI50 denotes the concentration at which growth is held to half of that of the control. Consider `Nc1nc2c(NCc3ccco3)ncnc2[nH]1` [Compound 82, 6-furfurylamino-8-aminopurine], for which, in the data set on SKH-1 hairless mice, the skin compartment thickness entry is listed as “least effect on skin thickness”. For the same compound, in data set [1], the GI50 is 68.2 µM. Also, the JC-1 staining result in data set [2] is “punctate orange-red fluorescent staining”. Moreover, the mutagenic responses entry in data set [3] is given as “no positive mutagenic responses”. Besides, the “improvement in the proteasomal activity” value with proteasome is given as 5-10%. For the same compound, in the data set on proteasome (compared to untreated), the “inhibition of chymotrypsin-like proteasomal activity” value is given as “no inhibition”. In data set [4] (100 μM, MTT), the reduction in survival was 15%. For the same compound, the cell survival result in data set [4] (500 μM, MTT) is recorded as “reduction in cell survival”. The “toxic effects (MTT)” value in data set [4] (young fibroblasts, until a dose of 100 μM) is recorded as “little toxic effects”.
